What was measured:
human H3 receptor = biological target: T1, human H3 receptor (Homo sapiens, UniProt Q9Y5N1); experiment: Human H3 radioligand binding ([3H]-N-alpha-methylhistamine, SPA); details: human H3 binding, Table D; read-out: Human H3 Ki
T1 construct: expressed in transfected cells
Method in brief: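 Compounds (0.01 nM-30 μM) competed with approximately 1 nM [3H]-N-alpha-methylhistamine for human H3 receptor in membranes of stably transfected CHO cells, 10 μg protein per well, in Tris-HCl pH 7.4/MgCl2/BSA buffer for 4 h at room temperature. Bound radioligand measured by scintillation proximity; 10 μM clobenpropit gave non-specific binding.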

[1] = biological target: T2, rat histamine H3 receptor (Rattus norvegicus, UniProt Q9QYN8); experiment: Rat H3 radioligand binding ([3H]-N-alpha-methylhistamine, SPA); details: rat H3 binding, Table D; read-out: Rat H3 Ki
T2 construct: encoding the entire 445-amino-acid rat histamine H3 receptor; expressed in transfected cells; membrane preparation
Method in brief: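 SPA-bead binding assay using [3H]-N-alpha-methylhistamine (approximately 1 nM final) with test compounds from 0.01 nM to 30 μM. Rat H3 receptor membranes came from stably transfected CHO-A3 cells; incubation ran 4 h at room temperature, in the dark, in Tris pH 7.4 buffer with MgCl2 and BSA. Clobenpropit (10 μM) gave non-specific binding.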

T1 sequence (Q9Y5N1 whole entry): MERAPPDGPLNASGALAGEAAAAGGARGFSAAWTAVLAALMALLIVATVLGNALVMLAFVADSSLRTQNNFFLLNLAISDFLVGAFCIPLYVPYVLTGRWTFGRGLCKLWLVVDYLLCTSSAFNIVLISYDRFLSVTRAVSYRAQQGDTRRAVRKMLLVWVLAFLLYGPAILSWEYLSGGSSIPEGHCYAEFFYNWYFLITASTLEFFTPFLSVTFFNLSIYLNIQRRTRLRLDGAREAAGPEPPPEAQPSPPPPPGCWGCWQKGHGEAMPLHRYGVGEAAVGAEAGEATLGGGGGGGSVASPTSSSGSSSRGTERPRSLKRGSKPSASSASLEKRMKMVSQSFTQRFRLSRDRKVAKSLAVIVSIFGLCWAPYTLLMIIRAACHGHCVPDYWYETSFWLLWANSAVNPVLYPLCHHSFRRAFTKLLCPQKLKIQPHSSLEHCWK
T2 sequence (Q9QYN8 whole entry): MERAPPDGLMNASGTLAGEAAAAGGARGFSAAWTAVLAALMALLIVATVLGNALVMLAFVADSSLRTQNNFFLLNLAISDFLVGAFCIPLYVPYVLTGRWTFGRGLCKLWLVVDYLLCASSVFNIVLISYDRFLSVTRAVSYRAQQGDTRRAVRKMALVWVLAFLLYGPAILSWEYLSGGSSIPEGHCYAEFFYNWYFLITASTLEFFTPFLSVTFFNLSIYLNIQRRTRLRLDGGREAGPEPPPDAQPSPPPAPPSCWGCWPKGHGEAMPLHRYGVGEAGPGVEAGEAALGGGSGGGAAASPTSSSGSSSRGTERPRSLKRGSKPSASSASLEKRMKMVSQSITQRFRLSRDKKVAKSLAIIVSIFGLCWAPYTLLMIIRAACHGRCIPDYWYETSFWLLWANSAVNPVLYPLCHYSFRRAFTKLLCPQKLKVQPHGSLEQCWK

Ki (human H3 receptor) [nM] | Ki [1] [nM] | melting point | Compound
< 200 | < 200 | 75.5 to 77.8 °C | Cc1nnc(C2CCN(c3ccc4c(c3)COC3(CCN(C5CCC5)CC3)O4)CC2)o1 [Example 657]
< 200 | < 200 | 221.5 to 223.7 °C | O=c1[nH]cc(-c2ccc3c(c2)COC2(CCN(C4CCC4)CC2)O3)cc1Cl [Example 658]
< 200 | < 200 | 150 to 152 °C | CCS(=O)(=O)c1ccc(-c2ccc3c(c2)COC2(CCN(C4CCC4)CC2)O3)s1 [Example 661]
< 200 | < 200 | 205 to 206 °C | O=c1cc(COc2ccc3c(c2)CCC2(CCN(C4CCC4)CC2)O3)cc[nH]1 [Example 663]
< 200 | < 200 | 230 to 232 °C | O=c1[nH]ccc(-c2ccc3c(c2)COC2(CCN(C4CCC4)CC2)O3)c1Cl [Example 666]
< 200 | < 200 | 167 to 170 °C | CN(C)C(=O)c1cccc(COc2ccc3c(c2)CCC2(CCN(C4CCC4)CC2)O3)n1 [Example 670]
< 200 | < 200 | 158 to 159 °C | c1cc2c(cc1OCc1nnc(C3CC3)o1)CCC1(CCN(C3CCC3)CC1)O2 [Example 671]
< 200 | < 200 | 87 to 89 °C | Cc1nnc(CCc2ccc3c(c2)COC2(CCN(C4CCC4)CC2)O3)o1 [Example 673]
< 200 | < 200 | 75 to 78 °C | CN(C)C(=O)c1ccc(COc2ccc3c(c2)CCC2(CCN(C4CCC4)CC2)O3)nc1 [Example 674]
< 200 | < 200 | 83 to 85 °C | c1nnc(CCc2ccc3c(c2)COC2(CCN(C4CCC4)CC2)O3)o1 [Example 675]
< 200 | < 200 | 223.5 to 225.8 °C | C/C=C(\CC)c1ccc2c(c1)COC1(CCN(C3CCC3)CC1)O2 [Example 677]
< 200 | < 200 | 230 to 231 °C | Cn1cc(-c2ccc3c(c2)COC2(CCN(C4CCC4)CC2)O3)cnc1=O [Example 680]
< 200 | < 200 | 210 to 211 °C | CNC(=O)c1ccc(-c2ccc3c(c2)COC2(CCN(C4CCC4)CC2)O3)c(C)c1 [Example 681]
< 200 | < 200 | 87 to 90 °C | CNC(=O)c1ccc(-c2ccc3c(c2)COC2(CCN(C4CCC4)CC2)O3)c(OC)c1 [Example 682]
< 200 | < 200 | 69 to 72 °C | OC(c1ccncc1)c1ccc2c(c1)COC1(CCN(C3CCC3)CC1)O2 (stereo not drawn) [Example 683]
< 200 | < 200 | 170 to 173 °C | O=C(NC1CCOCC1)c1ccc(-c2ccc3c(c2)COC2(CCN(C4CCC4)CC2)O3)c(Cl)c1 [Example 686]
< 200 | < 200 | 184 to 185 °C | Cc1cc(C(=O)NC2CCOCC2)ccc1-c1ccc2c(c1)COC1(CCN(C3CCC3)CC1)O2 [Example 687]
< 200 | < 200 | 57 to 60 °C | OC(c1cncnc1)c1ccc2c(c1)COC1(CCN(C3CCC3)CC1)O2 (stereo not drawn) [Example 692]
< 200 | < 200 | 180 to 182 °C | Cc1cc(C(N)=O)ccc1-c1ccc2c(c1)COC1(CCN(C3CCC3)CC1)O2 [Example 693]
< 200 | < 200 | 98 to 100 °C | CCc1nnc(CCc2ccc3c(c2)COC2(CCN(C4CCC4)CC2)O3)o1 [Example 694]
< 200 | < 200 | 179 to 180 °C | c1c[nH]c(-c2ccc3c(c2)COC2(CCN(C4CCC4)CC2)O3)c1 [Example 702]
200 to 1000 | > 1000 | 214 to 216 °C | O=c1ccc(-c2ccc3c(c2)COC2(CCN(CCC4CCOCC4)CC2)O3)c[nH]1 [Example 703]
< 200 | < 200 | 62.4 to 64.7 °C | Cc1nnc(C2CCC(c3ccc4c(c3)COC3(CCN(C5CCC5)CC3)O4)CC2)o1 (stereo not drawn) [Example 707]

The next lines start with the compound.

Compound | Ki (human H3 receptor) [nM] | Ki [1] [nM] | melting point
CS(=O)(=O)c1cncc(-c2ccc3c(c2)COC2(CCN(C4CCC4)CC2)O3)c1 [Example 655] | < 200 | < 200 | 148 to 149 °C
CC(C)S(=O)(=O)C1CCN(c2ccc3c(c2)COC2(CCN(C4CCC4)CC2)O3)CC1 [Example 656] | < 200 | < 200 | 142.6 to 145.1 °C
Cn1cc(-c2ccc3c(c2)COC2(CCN(C4CCC4)CC2)O3)ccc1=O [Example 659] | < 200 | < 200 | 170 to 173 °C
O=C(CCc1ccc2c(c1)COC1(CCN(C3CCC3)CC1)O2)N1CCOCC1 [Example 660] | < 200 | < 200 | 71 to 73 °C
COc1ncc(-c2ccc3c(c2)COC2(CCN(C4CCC4)CC2)O3)c(OC)n1 [Example 662] | < 200 | < 200 | 250 °C (dec.)
OC(c1ccc2c(c1)COC1(CCN(C3CCC3)CC1)O2)c1nccs1 (stereo not drawn) [Example 664] | < 200 | < 200 | 70 to 72 °C
Cc1cc(C2CCN(c3ccc4c(c3)COC3(CCN(C5CCC5)CC3)O4)CC2)on1 [Example 665] | < 200 | < 200 | 135.9 to 137.2 °C
O=c1cc(-c2ccc3c(c2)COC2(CCN(C4CCC4)CC2)O3)c(Cl)c[nH]1 [Example 667] | < 200 | < 200 | 130 to 132 °C
O=C(O)c1ccc(-c2ccc3c(c2)COC2(CCN(C4CCC4)CC2)O3)cc1 [Example 668] | < 200 | < 200 | 236 to 237 °C
OC(c1ccc2c(c1)COC1(CCN(C3CCC3)CC1)O2)c1cncs1 (stereo not drawn) [Example 669] | < 200 | < 200 | 72 to 75 °C
COCc1noc(COc2ccc3c(c2)CCC2(CCN(C4CCC4)CC2)O3)n1 [Example 672] | < 200 | < 200 | 178 to 179 °C
Cc1noc(CCc2ccc3c(c2)COC2(CCN(C4CCC4)CC2)O3)n1 [Example 676] | < 200 | < 200 | 74 to 76 °C
CCc1nnc(COc2ccc3c(c2)CCC2(CCN(C4CCC4)CC2)O3)o1 [Example 678] | < 200 | < 200 | 170 to 172 °C
NC(=O)c1ccc(-c2ccc3c(c2)COC2(CCN(C4CCC4)CC2)O3)s1 [Example 679] | < 200 | < 200 | 250 °C (dec.)
CNC(=O)c1ccc(-c2ccc3c(c2)COC2(CCN(C4CCC4)CC2)O3)c(Cl)c1 [Example 685] | < 200 | < 200 | 211 to 213 °C
COc1cc(C(=O)NC2CCOCC2)ccc1-c1ccc2c(c1)COC1(CCN(C3CCC3)CC1)O2 [Example 688] | < 200 | < 200 | 100 to 102 °C
Cc1nnc(C2CC=C(c3ccc4c(c3)COC3(CCN(C5CCC5)CC3)O4)CC2)o1 (stereo not drawn) [Example 689] | < 200 | < 200 | 76.4 to 78.4 °C
CC1CN=C(CCc2ccc3c(c2)COC2(CCN(C4CCC4)CC2)O3)O1 (stereo not drawn) [Example 691] | < 200 | < 200 | 61 to 63 °C
CC(C)c1nnc(CCc2ccc3c(c2)COC2(CCN(C4CCC4)CC2)O3)o1 [Example 695] | < 200 | < 200 | 101 to 103 °C
OC(c1ccc2c(c1)COC1(CCN(C3CCC3)CC1)O2)c1cscn1 (stereo not drawn) [Example 697] | < 200 | < 200 | 63 to 68 °C
COc1cc(C(=O)O)ccc1-c1ccc2c(c1)COC1(CCN(C3CCC3)CC1)O2 [Example 699] | < 200 | < 200 | 282 to 284 °C
NC(=O)COc1ccc2c(c1)CCC1(CCN(C3CCC3)CC1)O2 [Example 700] | < 200 | < 200 | 121 to 125 °C
CNC(=O)c1ccc(-c2ccc3c(c2)COC2(CCN(C4CCC4)CC2)O3)cc1O [Example 704] | < 200 | < 200 | 252 to 254 °C
O=C(NC1CCOCC1)c1ccc(-c2ccc3c(c2)COC2(CCN(C4CCC4)CC2)O3)cc1O [Example 705] | < 200 | < 200 | 193 to 195 °C
COCCn1cc(-c2ccc3c(c2)COC2(CCN(C4CCC4)CC2)O3)ccc1=O [Example 708] | < 200 | < 200 | 141 to 142 °C
Cc1cc(=O)n(C)cc1-c1ccc2c(c1)COC1(CCN(C3CCC3)CC1)O2 [Example 709] | < 200 | < 200 | 151 to 154 °C
O=c1ccc(-c2ccc3c(c2)COC2(CCN(C4CCC4)CC2)O3)cn1CC(F)(F)F [Example 710] | < 200 | < 200 | 158 to 160 °C
COc1ccc(-c2ccc3c(c2)COC2(CCN(CCC4CCOCC4)CC2)O3)cn1 [Example 711] | > 1000 | > 1000 | 143 to 145 °C
